Measurements from patent publication US7196108B2, “Bicyclic heterocycles for the treatment of diabetes and other diseases” (Incyte San Diego Inc., priority 2002, dated 2007).
Entries after “also recorded” stand apart in the source; their conditions may differ.

Assays:
KKA^y mice = assay: Oral administration in the treatment of type 2 diabetes in KKA^y mice (serum glucose and triglycerides); assay type: in vivo, mouse; conditions: 15 mg/kg oral gavage once daily in sesame oil, days 7 and/or 14, vs control; for serum glucose level: FIG. 2; for serum triglyceride level: FIG. 3
Experimental: These models include among others, db/db mice, ob/ob mouse, and KKA^y mice. […] A procedure for such experiments was described in detail in Iwatsuka, et al., 1970 General Survey of Diabetic Features of Yellow KK Mice. Endocrinol. Japon. 17: 23–35, incorporated herein by reference. The testing of the compounds of the invention was conducted as described in Example 22. The animals were treated with a single daily oral dose of 15 mg/kg of the test compound suspended in sesame oil (dose volume of 3–5 ml/kg). At the end of one and two weeks of treatment the animals were bled from the tail vein and their serum glucose and triglycerides and/or cholesterol was measured in duplicate.
Experimental Procedure: Six to eight week-old male KKA^y mice (available from Jackson Labs of Bar Harbour, Me.) were housed in a fixed 12–12-hr artificial light-dark cycle, and maintained on a standard rodent diet provided ad libitum. Animals were allowed two days to acclimate in this experimental environment prior to the initiation of the study. Prior to initiation of treatment, the animals were bled from the tail vein (100–200 μL of whole blood) and serum levels of glucose and triglycerides were measured in duplicate (Trinder kits; Sigma, St.Louis, Mo.). Based on these initial measures, animals were sorted into groups with approximately the same average serum triglyceride levels. Once sorted, the animals were housed one per cage and provided rodent diet ad libitum.
Treatment group A (n=6/group): • 1) KKA^y control (sesame oil) • 2) Compound 1 (15 mg/kg)
Treatment group B (n=6/group): • 1) KKA^y control (sesame oil) • 2) Compound 6 (15 mg/kg)
Treatment group C (n=6/group): • 1) KKA^y control (sesame oil) • 2) Compound 9 (15 mg/kg)
All compounds were suspended in sesame oil, and administered to animals in a volume of 3 ml/kg/dose. All treatments were administered by oral gavage once daily.
To monitor the effect of the tested Compounds, animals were bled at the end of the dark cycle on days 7 and/or 14 of the treatment period. Serum glucose and triglyceride levels were measured in duplicate. The blood was kept at room temperature to allow coagulation, after which the serum was separated and assayed for glucose and triglyceride levels.

3T3-L1 pre-adipocytes = conditions: disclosed in U.S. Pat. No. 6,515,003; cited from earlier work
[1] = disclosed in U.S. Pat. No. 6,515,003; cited from earlier work

melting point [°C] | Compound | serum glucose level (KKA^y mice) | serum triglyceride level (KKA^y mice) | adipocyte differentiation activity (3T3-L1 pre-adipocytes) | activity for the treatment of diabetes [1]
142 to 146 | CC(C)Cc1cc(-c2cc(/C=C3\SC(=O)NC3=O)ccc2OC(F)(F)F)c2c(c1)C(C)(C)CO2 [Compound 1, 5-[3-(5-Isobutyl-3,3-dimethyl-2,3-dihydro-benzofuran-7-yl)-4-trifluoromethoxy-benzylidene]-thiazolidine-2,4-dione] | significantly lowered; also recorded: reduction | lowered; also recorded: reduction | – | –
– | COc1c(F)cc(/C=C2\SC(=O)NC2=O)c(F)c1-c1cc(CC(C)C)cc2c1OCC2(C)C [Compound 6, 5-[2,5-Difluoro-3-(5-isobutyl-3,3-dimethyl-2,3-dihydro-benzofuran-7-yl)-4-methoxy-benzylidene]-thiazolidine-2,4-dione] | significantly lowered; also recorded: reduction | lowered; also recorded: reduction | – | –
– | CC1(C)COc2c(-c3cc(/C=C4\SC(=O)NC4=O)ccc3OC(F)(F)F)cc(-c3ccoc3)cc21 [Compound 9, 5-[3-(5-Furan-3-yl-3,3-dimethyl-2,3-dihydro-benzofuran-7-yl)-4-trifluoromethoxy-benzylidene]-thiazolidine-2,4-dione] | significantly lowered; also recorded: reduction | lowered; also recorded: reduction | – | –
– | Cc1cc2c(cc1-c1cc(/C=C3\SC(=O)NC3=O)ccc1OC(F)(F)F)C(C)(C)CCC2(C)C [Compound 20, 5-[3-(3,5,5,8,8-Pentamethyl-5,6,7,8-tetrahydro-naphthalen-2-yl)-4-trifluoromethoxy-benzylidene]-thiazolidine-2,4-dione] | – | – | active | active
